Data from PMC3692431, “Anticonvulsant Activity of B2, an Adenosine Analog, on Chemical Convulsant-Induced Seizures” (PLoS ONE, 2013).

What was measured:
[1] = tested on: c-Fos expression in the hippocampus; assay: PTZ-induced c-Fos expression, western blot; assay type: in vivo, mice; conditions: B2 5 mg/kg + PTZ 85 mg/kg, 2 h, PTZ alone 8 times
Procedure: Mice were injected with either B2 (5 mg/kg) or vehicle 20 min before administration of PTZ (85 mg/kg). Two hours later, mice were either anesthetized for c-Fos analysis using immunohistochemistry or decapitated or western blotting.
Mice were decapitated and the hippocampus was quickly dissected on ice. The hippocampus was then homogenized in 20 volumes of cell lysis buffer. The homogenates were incubated on ice for 15 min and centrifuged at 12000×g for 5 min at 4°C. The supernatant containing the crude nuclear extract was collected and the protein content estimated using a Bradford assay. Protein samples […] were electrophoresed in 10% SDS-PAGE at 150 V for 3 h. The samples were then electroblotted onto nitrocellulose membranes at 20 V. The membranes were blocked using 5% dry non-fat milk in 0.1% TBST solution, and incubated overnight on a shaker with anti-c-Fos rabbit antibody (SC-52g) diluted 1∶800 (Santa Cruz Biotechnology). On the following day, the blots were washed using 0.1% TBST solution and incubated for 2 h with anti-rabbit peroxidase-conjugated secondary antibody. The blots were then washed using 0.1% TBST solution. After adding super ECL plus solution, the protein bands were detected using ECL (Fuji Digital Science), as described by the manufacturer. The optical density of the intensity of the bands was measured using Gel Pro Analyzer (version 4.0).

[2] = tested on: strychnine-induced seizures; assay: Strychnine-induced seizures in mice; assay type: in vivo; conditions: strychnine 1.5 mg/kg i.p.; for mortality rate: control 88%; for latency to seizure onset prolonged by: vs control
Procedure: (§1) KA was dissolved in saline and the pH was adjusted to neutrality. The final concentration of KA was 0.7 µg/µl, and the convulsant dose was 1 µl (i.c.v.). […] The selective adenosine receptor antagonist DPCPX or SCH58261 was administered (i.p.) 5 min before administration of B2 or vehicle.
Mice were injected with B2 (1.25, 5, 20 mg/kg), carbamazepine (80 mg/kg) or vehicle 20 min before administration of strychnine (1.5 mg/kg) or 4-AP (13 mg/kg). […] The time of latency to seizure onset and mortality rate were recorded.

A1 adenosine receptor = target: T1, A1 adenosine receptor (Rattus norvegicus, UniProt P25099); assay: Radioligand binding, [3H]DPCPX displacement in rat cortical membranes; conditions: 0.2 nM [3H]DPCPX
T1 construct: from tissue; host or cells: cerebral cortex of male Wistar rats
T1 sequence (P25099 1-326): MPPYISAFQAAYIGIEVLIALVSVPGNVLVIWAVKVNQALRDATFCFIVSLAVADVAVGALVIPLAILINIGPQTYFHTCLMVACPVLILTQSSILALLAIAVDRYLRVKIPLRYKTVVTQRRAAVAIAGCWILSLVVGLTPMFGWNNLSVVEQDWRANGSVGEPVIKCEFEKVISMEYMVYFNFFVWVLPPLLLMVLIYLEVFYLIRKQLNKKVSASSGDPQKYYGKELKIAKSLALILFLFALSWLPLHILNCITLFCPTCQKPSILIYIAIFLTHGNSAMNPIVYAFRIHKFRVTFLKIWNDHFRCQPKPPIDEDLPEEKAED

PTZ-induced seizures = PTZ-induced seizures with adenosine receptor antagonist pretreatment; assay type: in vivo, mice; conditions: B2 5 mg/kg; PTZ 85 mg/kg; P<0.05
Procedure: as §1
Twenty min later, mice were admdinistered with PTZ (85 mg/kg).

[3] = target: T2, recombinant human adenosine A1 receptor (Homo sapiens, UniProt P30542); assay: cAMP accumulation assay in CHO cells expressing A1 receptor; assay type: cell-based; conditions: CHO cells stably expressing human A1 receptor; forskolin-stimulated cAMP; read-out: EC50, decrease of cellular cAMP level
T2 construct: expressed in transfected cells; host or cells: CHO cells (provided by Professor R. B. Su)
T2 sequence (P30542 1-326): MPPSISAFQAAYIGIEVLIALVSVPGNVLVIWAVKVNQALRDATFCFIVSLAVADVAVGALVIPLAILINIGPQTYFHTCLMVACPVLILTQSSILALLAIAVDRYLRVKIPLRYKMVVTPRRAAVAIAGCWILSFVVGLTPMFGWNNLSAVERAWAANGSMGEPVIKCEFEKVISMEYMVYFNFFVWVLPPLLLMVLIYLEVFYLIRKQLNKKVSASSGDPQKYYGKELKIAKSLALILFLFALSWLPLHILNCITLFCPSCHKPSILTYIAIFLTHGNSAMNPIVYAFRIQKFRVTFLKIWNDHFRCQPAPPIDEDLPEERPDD
Procedure: (§2) Chinese hamster ovary (CHO) cells expressing recombinant human A1/A2A receptors (provided by Professor R. B. Su of the Institute of Pharmacology and Toxicology, Academy of Military Medical Sciences, Beijing, China) were cultured in Dulbecco’s Modified Eagles Medium with the F12 nutrient mixture (DMEM/F12) containing no nucleosides, and with 10% fetal calf serum, penicillin (100 U/ml), streptomycin (100 µg/ml), L-glutamine (2 mM), and Geneticin at 37°C in a 5% CO2/95% atmosphere. The cells used to determine cAMP levels had viability >95%, as assessed by trypan blue exclusion.
(§3) Intracellular cyclic adenosine monophosphate (cAMP) levels were measured using a competitive protein binding method. To measure A1/A2A receptor-mediated accumulation of cAMP, cells were grown as confluent monolayers in 24-well cluster dishes. The cells were washed twice with 2 mL of medium containing 20 mM HEPES that had been prewarmed to 37°C, pH 7.4. The cells were then preincubated for 15 min in 0.4 mL fresh medium containing 30 µM of the cAMP phosphodiesterase inhibitor rolipram. B2 was added in 0.1 mL of medium and incubations continued for 15 min. The reaction was then terminated by removing the supernatant, and cells were lysed with the addition of 500 µl of 0.1 M ice-cold HCl. The cell lysate was centrifuged (4,000×g) at 4°C for 10 min. […] Bound radioactivity was measured by liquid scintillation spectrometry.

PC12 cell = tested on: PC12 cell; design: method as in PMID 22242450; conditions: cited from earlier work
[4] = tested on: rat adenosine A2A receptors; design: method as in PMID 22242450; conditions: cited from earlier work
[5] = target: T3, recombinant human adenosine A2A receptor (Homo sapiens, UniProt P29274); assay: cAMP accumulation assay in CHO cells expressing A2A receptor; assay type: cell-based; conditions: CHO cells expressing human A2A receptors; read-out: EC50, elevation of cAMP levels
T3 construct: expressed in transfected cells; host or cells: CHO cells (provided by Professor R. B. Su)
T3 sequence (P29274 whole entry): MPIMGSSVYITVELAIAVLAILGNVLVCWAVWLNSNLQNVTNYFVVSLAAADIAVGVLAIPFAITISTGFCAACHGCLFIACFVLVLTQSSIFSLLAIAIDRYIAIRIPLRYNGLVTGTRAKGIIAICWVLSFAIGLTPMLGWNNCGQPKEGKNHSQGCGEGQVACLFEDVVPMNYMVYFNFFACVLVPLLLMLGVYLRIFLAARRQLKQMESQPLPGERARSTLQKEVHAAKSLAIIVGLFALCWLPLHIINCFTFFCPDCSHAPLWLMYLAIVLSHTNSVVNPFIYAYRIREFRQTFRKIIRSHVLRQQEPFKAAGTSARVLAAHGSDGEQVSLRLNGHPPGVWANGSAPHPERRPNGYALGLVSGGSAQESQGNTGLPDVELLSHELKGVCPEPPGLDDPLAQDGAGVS
Procedure: as §2, §3

## COc1cc(CNc2ncnc3c2ncn3[C@@H]2O[C@H](CO)[C@@H](O)[C@H]2O)ccc1O [B2, N^6-(3-methoxyl-4-hydroxybenzyl) adenine riboside]
[1]
  c-Fos expression in the hippocampus, times larger than vehicle control group: 1.5 times
[2]; B2 1.25 mg/kg i.p.
  mortality rate: 71%
  latency to seizure onset prolonged by: 45%
[2]; B2 5 mg/kg i.p.
  mortality rate: 43%
  latency to seizure onset prolonged by: 88%
[2]; B2 20 mg/kg i.p.
  mortality rate: 57%
  latency to seizure onset prolonged by: 89%
A1 adenosine receptor
  Ki: 0.42 µM
PTZ-induced seizures
  effect on latency to seizure onset: significantly prolonged
[3]
  EC50: 0.18 µM
PC12 cell
  PC12 cell survival in serum deprivation-induced apoptosis: remarkably increased
[4]
  affinity for rat adenosine A2A receptors: moderate affinity
[5]
  EC50: 0.32 µM
